Test results published in patent publication US9169252B2 (BRISTOL-MYERS SQUIBB COMPANY, priority 2014, dated 2015).
Where two headings read alike, the source gives them in different places.

Tests used:
IRAK4 = IRAK4 (Homo sapiens (Human), UniProt Q9NWZ3); test: IRAK4 Inhibition Assay; format: biochemical; conditions: ATP 500 μM, read-out: IRAK4 IC50
Outline: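 Mobility-shift readout: fluorescent substrate and phosphoproduct resolved electrophoretically on Caliper LabChip 3000 after EDTA quench (35 mM). Enzyme reaction of IRAK4, substrates and test compound ran 60 min at room temperature.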

[1] = system: TLR2 induced IL-6 in peripheral blood mononuclear cells (PBMCs); test: PBMC TLR2 Induced IL-6 Assay; format: cell-based, human; conditions: IL-6 by ELISA; for IC50: read-out: Cell IC50; for EC50: read-out: Cell EC50
Outline: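 Lipoteichoic acid at 10 µg/ml served as TLR2 stimulus for 5 hours, following a 30-minute compound pretreatment at 37° C. Cells were Ficoll-isolated human PBMCs, 250000 cells/well, cultured in RPMI plus 10% heat-inactivated FCS.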

[2] = Homo sapiens, PBMC, PBMC TLR2 Induced IL-6 Assay, lipoteichoic acid stimulation
[3] = PBMC TLR2 Induced IL-6 Assay, lipoteichoic acid stimulation
[4] = Homo sapiens, PBMC, human PBMCs, lipoteichoic acid stimulated

Sequence of IRAK4 (Q9NWZ3 whole entry, species assumed): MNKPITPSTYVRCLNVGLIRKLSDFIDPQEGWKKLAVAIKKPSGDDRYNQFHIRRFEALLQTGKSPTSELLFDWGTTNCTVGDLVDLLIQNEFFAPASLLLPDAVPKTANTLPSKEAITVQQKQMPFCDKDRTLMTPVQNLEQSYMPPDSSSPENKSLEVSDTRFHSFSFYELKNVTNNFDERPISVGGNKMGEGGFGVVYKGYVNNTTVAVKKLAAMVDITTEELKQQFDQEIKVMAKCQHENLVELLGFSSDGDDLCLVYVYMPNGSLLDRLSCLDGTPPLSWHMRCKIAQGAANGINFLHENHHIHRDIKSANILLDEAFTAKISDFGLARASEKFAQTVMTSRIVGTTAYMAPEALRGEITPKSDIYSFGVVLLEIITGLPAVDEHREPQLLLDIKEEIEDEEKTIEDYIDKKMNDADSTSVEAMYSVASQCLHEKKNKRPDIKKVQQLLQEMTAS

Row | SMILES | IC50 (IRAK4; IRAK4 Inhibition Assay) | IC50 [1, 2] | EC50 [1, 2] | also measured
1 | CCS(=O)(=O)N1CCC(NC(=O)c2cnc(-n3ncc4cc(C#N)cnc43)cc2NC(C)C)CC1 [Example 290] | 5.9 nM | 364 nM | – | –
2 | CC(C)Nc1cc(-n2ncc3cc(C#N)cnc32)ncc1C(=O)NCC(F)C1(O)COC1 (centres unmarked) [Example 243] | 5.3 nM | – | 298 nM | IC50 [1, 3]: 1990 nM
3 | CC(C)(O)[C@H](F)CNC(=O)c1cnc(-n2ccc3cc(C#N)cnc32)cc1NC1CCC(F)C1 (single isomer, unassigned) [Example 110] | 1.3 nM | – | – | EC50 [1, 3]: 47 nM
4 | CC(C)Nc1cc(-n2ncc3cc(C#N)cnc32)ncc1C(=O)NCCC1(O)CCN(C)CC1 [Example 250] | 8.3 nM | – | 497 nM | –
5 | N#Cc1cc2cnn(-c3cc(NC4COC4)c(C(=O)NCCC4CC4)cn3)c2nc1N [Example 558] | – | – | – | IC50 (IRAK4; IRAK4 0.6 nM): 6.1 nM; IC50 [1, 4]: 615 nM
6 | CCn1nnnc1-c1ccc(Nc2cc(-n3ccc4cc(C#N)cnc43)ncc2C(=O)NC[C@@H](F)C(C)(C)O)cc1 [Example 433] | – | – | – | IC50 (IRAK4; IRAK4 0.6 nM): 4.1 nM; EC50 [1, 4]: 164 nM; IC50 [1, 4]: 499 nM
7 | CC(C)(O)[C@H](F)CNC(=O)c1cnc(-n2ccc3cc(C#N)cnc32)cc1NCCC(F)(F)F [Example 425] | – | – | – | IC50 (IRAK4; IRAK4 0.6 nM): 1.8 nM; EC50 [1, 4]: 154 nM
8 | CC(C)Nc1cc(-n2ncc3cc(C#N)cnc32)ncc1C(=O)Nc1ccc(N2CCOCC2)nc1 [Example 216] | 4.5 nM | – | 253 nM | –
9 | CC(C)Nc1cc(-n2ncc3cc(C#N)cnc32)ncc1C(=O)NCCC1CCOCC1 [Example 310] | 4.5 nM | 23 nM | – | –
10 | CC(C)Nc1cc(-n2ccc3cc(C#N)cnc32)ncc1C(=O)NCC(=O)N1CCN(C)CC1 [Example 467] | – | – | – | IC50 (IRAK4; IRAK4 0.6 nM): 2.3 nM; EC50 [1, 4]: 26 nM; IC50 [1, 4]: 100 nM
11 | COc1ccc(CCNC(=O)c2cnc(-n3ncc4cc(C#N)cnc43)cc2NC(C)C)cc1 [Example 261] | 3.4 nM | 154 nM | – | –
12 | CCNc1cc(-n2ccc3cc(C#N)cnc32)ncc1C(=O)N[C@H]1CC[C@H](C(C)(C)O)CC1 [Example 100, 6-(5-cyano-1H-pyrrolo[2,3-b]pyridin-1-yl)-4-(ethylamino)-N-((trans)-4-(2-hydroxypropan-2-yl)cyclohexyl)nicotinamide] | 2.5 nM | – | 95 nM | –
13 | CC(C)(O)[C@H](F)CNC(=O)c1cnc(-n2ccc3cc(C#N)cnc32)cc1N[C@@H]1COC[C@H]1O [Example 455] | – | – | – | IC50 (IRAK4; IRAK4 0.6 nM): 2.2 nM; EC50 ([1]; human PBMCs, lipoteichoic acid stimulated): 72 nM
14 | CC(C)(O)[C@H](F)CNC(=O)c1cnc(-n2ccc3cc(C#N)cnc32)cc1Nc1ccc2ncsc2c1 [Example 64, (R)-4-(benzo[d]thiazol-6-ylamino)-6-(5-cyano-1H-pyrrolo[2,3-b]pyridin-1-yl)-N-(2-fluoro-3-hydroxy-3-methylbutyl)nicotinamide] | 1.7 nM | – | 93 nM | –
15 | CC(=O)N[C@H]1CC[C@H](NC(=O)c2cnc(-n3ncc4cc(C#N)cnc43)cc2NC(C)C)CC1 [Example 164, N-((trans)-4-acetamidocyclohexyl)-6-(5-cyano-1H-pyrazolo[3,4-b]pyridin-1-yl)-4-(isopropylamino) nicotinamide] | 3.5 nM | – | 299 nM | –
16 | CC(C)(O)[C@H](F)CNC(=O)c1cnc(-n2ncc3cc(C#N)cnc32)cc1Nc1ccc(-n2cncn2)cc1 [Example 526] | – | – | – | IC50 (IRAK4; IRAK4 0.6 nM): 3.7 nM; EC50 [1, 4]: 113 nM
17 | CC[C@@H](C)Nc1cc(-n2ncc3cc(C#N)c(N)nc32)ncc1C(=O)NC[C@@H](F)C(C)(C)O [Example 300] | 1.6 nM | 83 nM | – | –
18 | CC(C)(O)[C@H](F)CNC(=O)c1cnc(-n2ccc3cc(C#N)cnc32)cc1Nc1cccc(NS(C)(=O)=O)c1 [Example 57, (R)-6-(5-cyano-1H-pyrrolo[2,3-b]pyridin-1-yl)-N-(2-fluoro-3-hydroxy-3-methylbutyl)-4-((3-(methylsulfonamido)phenyl)amino) nicotinamide] | 1.5 nM | – | 173 nM | –
19 | CC(C)(O)[C@H](F)CNC(=O)c1cnc(-n2ccc3cc(C#N)cnc32)cc1NC1COC1 [Example 437] | – | – | – | IC50 (IRAK4; IRAK4 0.6 nM): 1 nM; EC50 [1, 4]: 42 nM

Row | SMILES | IC50 (IRAK4; IRAK4 Inhibition Assay) | IC50 [1, 2] | EC50 [1, 2] | also measured
20 | CC(C)Nc1cc(-n2ncc3cc(C#N)cnc32)ncc1C(=O)NC[C@@H](F)C(C)C [Example 312] | 9.2 nM | 375 nM | – | –
21 | CC(C)Nc1cc(-n2ncc3cc(C#N)cnc32)ncc1C(=O)Nc1cnc(N2CCOCC2)nc1 [Example 224] | 6.7 nM | 159 nM | 303 nM | –
22 | C[C@@H](CF)Nc1cc(-n2ncc3cc(C#N)cnc32)ncc1C(=O)NC[C@@H](F)C(C)(C)O [Example 121, 6-(5-cyano-1H-pyrazolo[3,4-b]pyridin-1-yl)-N—((R)-2-fluoro-3-hydroxy-3-methylbutyl)-4-(((S)-1-fluoropropan-2-yl)amino) nicotinamide] | 5.2 nM | – | 112 nM | –
23 | CC(=O)Nc1cnc2c(ccn2-c2cc(NC(C)C)c(C(=O)NC[C@@H](F)C(C)(C)O)cn2)c1 [Example 45, (R)-6-(5-acetamido-1H-pyrrolo[2,3-b]pyridin-1-yl)-N-(2-fluoro-3-hydroxy-3-methylbutyl)-4-(isopropylamino)nicotinamide] | 23.2 nM | – | 148 nM | –
24 | CC(C)Nc1cc(-n2ccc3cc(C#N)cnc32)ncc1C(=O)N[C@H]1CC[C@](O)(c2ccccn2)CC1 [Example 178, 6-(5-cyano-1H-pyrrolo[2,3-b]pyridin-1-yl)-N-((1s,4s)-4-hydroxy-4-(pyridin-2-yl)cyclohexyl)-4-(isopropylamino)nicotinamide] | 3.7 nM | – | 100 nM | –
25 | C[C@@H](CO)Nc1cc(-n2ccc3cc(F)cnc32)ncc1C(=O)N[C@H]1CC[C@H](C(C)(C)O)CC1 [Example 432] | – | – | – | IC50 (IRAK4; IRAK4 0.6 nM): 2.1 nM; EC50 [1, 4]: 80 nM
26 | CC(C)(O)[C@H](F)CNC(=O)c1cnc(-n2ccc3cc(C#N)cnc32)cc1NC1CCOCC1 [Example 3, (R)-6-(5-cyano-1H-pyrrolo[2,3-b]pyridin-1-yl)-N-(2-fluoro-3-hydroxy-3-methylbutyl)-4-((tetrahydro-2H-pyran-4-yl)amino)nicotinamide] | 1 nM | 48 nM | 11 nM | –
27 | CC(C)Nc1cc(-n2ncc3cc(C#N)cnc32)ncc1C(=O)NCCC1(O)CCOC1 (centres unmarked) [Example 237] | 6.7 nM | 364 nM | 102 nM | –
28 | CC(C)(O)[C@H](F)CNC(=O)c1cnc(-n2ncc3cc(C#N)cnc32)cc1Nc1cnn(-c2ncc(F)cn2)c1 [Example 411] | – | – | – | IC50 (IRAK4; IRAK4 0.6 nM): 1.6 nM; EC50 [1, 4]: 51 nM
29 | CC(C)(O)[C@H](F)CNC(=O)c1cnc(-n2ccc3cc(C#N)cnc32)cc1NC1CC1 [Example 2, (R)-6-(5-cyano-1H-pyrrolo[2,3-b]pyridin-1-yl)-4-(cyclopropylamino)-N-(2-fluoro-3-hydroxy-3-methylbutyl)nicotinamide] | 1.6 nM | 26 nM | 8 nM | –
30 | CC(C)Nc1cc(-n2ncc3cc(C#N)cnc32)ncc1C(=O)NC[C@@H](F)C(=O)N[C@@H](C)CO [Example 230] | 13.4 nM | 459 nM | 410 nM | –
31 | CC(C)NC(=O)[C@H](F)CNc1cc(-n2ccc3cc(C#N)cnc32)ncc1C(=O)NC[C@@H](F)C(C)(C)O [Example 435] | – | – | – | IC50 (IRAK4; IRAK4 0.6 nM): 9.9 nM; EC50 [1, 4]: 291 nM
32 | C[C@H](CF)Nc1cc(-n2ccc3cc(C#N)cnc32)ncc1C(=O)NCCC(C)(C)O [Example 120, (R)-6-(5-cyano-1H-pyrrolo[2,3-b]pyridin-1-yl)-4-((1-fluoropropan-2-yl)amino)-N-(3-hydroxy-3-methylbutyl)nicotinamide] | 5.1 nM | – | 105 nM | –
33 | CC(C)(F)[C@H](F)CNC(=O)c1cnc(-n2ncc3cc(C#N)cnc32)cc1Nc1cnn(CC(F)F)c1 [Example 395] | – | – | – | IC50 (IRAK4; IRAK4 0.6 nM): 2.2 nM; IC50 [1, 4]: 85 nM
34 | CC(C)Nc1cc(-n2ncc3cc(C#N)cnc32)ncc1C(=O)Nc1ccc(N2CCOCC2)cn1 [Example 221] | 8.4 nM | – | 230 nM | –
35 | [2H]C([2H])([2H])OC(C)(C)[C@H](F)CNC(=O)c1cnc(-n2ncc3cc(C#N)cnc32)cc1NC(C)C [Example 210] | 3.1 nM | – | 206 nM | –
36 | CC(C)Nc1cc(-n2ncc3cc(C#N)cnc32)ncc1C(=O)N[C@H]1CC[C@H](NS(C)(=O)=O)CC1 [Example 166, 6-(5-cyano-1H-pyrazolo[3,4-b]pyridin-1-yl)-4-(isopropylamino)-N-((trans)-4-(methylsulfonamido)cyclohexyl)nicotinamide] | 4.6 nM | – | 192 nM | –
37 | CC(C)(O)[C@H](F)CNC(=O)c1cnc(-n2ccc3cc(C#N)cnc32)cc1NC1CCOCC1F (single isomer, unassigned) [Example 106] | 1.9 nM | 896 nM | – | EC50 [1, 3]: 896 nM

More lines, main results first:

Row | IC50 (IRAK4; IRAK4 Inhibition Assay) | SMILES | IC50 [1, 2] | EC50 [1, 2] | also measured
38 | 2.4 nM | CC(C)(F)Cn1cc(Nc2cc(-n3ncc4cc(C#N)cnc43)ncc2C(=O)NC[C@@H](F)C(C)(C)O)cn1 [Example 356] | 154 nM | – | –
39 | 14.7 nM | CNS(=O)(=O)N1CCC(NC(=O)c2cnc(-n3ncc4cc(C#N)cnc43)cc2NC(C)C)CC1 [Example 313] | 289 nM | – | –
40 | 4.9 nM | CC(C)Nc1cc(-n2ncc3cc(C#N)cnc32)ncc1C(=O)NCC(F)C1CCOCC1 (centres unmarked) [Example 329] | 76 nM | – | –
